This assay has as its target T1, visual cycle isomerase (Bovine RPE microsome membranes) (Bos taurus, UniProt Q28175).
T1 construct: Bovine Retinal Pigment Epithelium (RPE) microsome membranes were the source of a visual cycle isomerase; from tissue; host or cells: bovine retinal pigment epithelium microsome membranes
T1 sequence (Q28175 2-533 limits assumed): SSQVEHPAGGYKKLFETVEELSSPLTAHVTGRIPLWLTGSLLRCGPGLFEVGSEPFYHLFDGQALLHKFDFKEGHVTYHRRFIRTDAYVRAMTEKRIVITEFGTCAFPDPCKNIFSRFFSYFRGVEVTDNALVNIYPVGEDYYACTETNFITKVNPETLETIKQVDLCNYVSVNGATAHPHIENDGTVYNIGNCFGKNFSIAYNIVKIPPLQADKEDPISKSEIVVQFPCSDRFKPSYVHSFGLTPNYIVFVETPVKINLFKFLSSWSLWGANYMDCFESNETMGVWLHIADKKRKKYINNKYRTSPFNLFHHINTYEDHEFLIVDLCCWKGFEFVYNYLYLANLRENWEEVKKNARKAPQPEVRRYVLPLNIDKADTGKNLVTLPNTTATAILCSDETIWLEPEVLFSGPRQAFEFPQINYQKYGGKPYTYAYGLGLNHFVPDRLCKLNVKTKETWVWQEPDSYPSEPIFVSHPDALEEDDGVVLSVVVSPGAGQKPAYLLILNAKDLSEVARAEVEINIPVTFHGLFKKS
The assay is described as follows: In vitro isomerase inhibition assay, bovine RPE microsome membranes. The class given is biochemical. The conditions noted are these: bovine RPE microsomes; 11-cis retinol formation. How it is done: The capability of alkynyl phenyl-linked amine derivative compounds to inhibit the activity of a visual cycle isomerase was determined.
Bovine Retinal Pigment Epithelium (RPE) microsome membranes were the source of a visual cycle isomerase.
Crude RPE microsome extracts were thawed in a 37° C. water bath, and then immediately placed on ice. 50 ml crude RPE microsomes were placed into a 50 ml Teflon-glass homogenizer (Fisher Scientific, catalog no. 0841416M) on ice, powered by a hand-held DeWalt drill, and homogenized ten times up and down on ice under maximum speed. This process was repeated until the crude RPE microsome solution was homogenized. The homogenate was then subjected to centrifugation (50.2 Ti rotor (Beckman, Fullerton, Calif.), 13,000 RPM; 15360 Rcf) for 15 minutes at 4° C. The supernatant was collected and subjected to centrifugation at 42,000 RPM (160,000 Rcf; 50.2 Ti rotor) for 1 hour at 4° C. The supernatant was removed, and the pellets were suspended in 12 ml (final volume) cold 10 mM MOPS buffer, pH 7.0. The resuspended RPE membranes in 5 ml aliquots were homogenized in a glass-to-glass homogenizer (Fisher Scientific, catalog no. K885500-0021) to high homogeneity. Protein concentration was quantified using the BCA protein assay according to the manufacturer's protocol (Pierce, Rockford, Ill.). The homogenized RPE preparations were stored at −80° C.
Recombinant human apo cellular retinaldehyde-binding protein (CRALBP) was cloned and expressed according to standard methods in the molecular biology art (see Crabb et al., Protein Science 7:746-57 (1998); Crabb et al., J. Biol. Chem. 263:18688-92 (1988)). Briefly, total RNA was prepared from confluent ARPE19 cells (American Type Culture Collection, Manassas, Va.), cDNA was synthesized using an oligo(dT)12-18 primer, and then DNA encoding CRALBP was amplified by two sequential polymerase chain reactions (see Crabb et al., J. Biol. Chem. 263:18688-92 (1988); Intres, et al., J. Biol. Chem. 269:25411-18 (1994); GenBank Accession No. L34219.1). The PCR product was sub-cloned into pTrcHis2-TOPO TA vector according to the manufacturer's protocol (Invitrogen Inc., Carlsbad, Calif.; catalog no. K4400-01), and then the sequence was confirmed according to standard nucleotide sequencing techniques. Recombinant 6×His-tagged human CRALBP was expressed in One Shot TOP 10 chemically competent E. coli cells (Invitrogen), and the recombinant polypeptide was isolated from E. coli cell lysates by nickel affinity chromatography using nickel (Ni) Sepharose XK16-20 columns for HPLC (Amersham Bioscience, Pittsburgh, Pa.; catalog no. 17-5268-02). The purified 6×His-tagged human CRALBP was dialyzed against 10 mM bis-tris-Propane (BTP) and analyzed by SDS-PAGE. The molecular weight of the recombinant human CRALBP was approximately 39 kDal.
Alkkynyl phenyl-linked amine derivative compounds and control compounds were reconstituted in ethanol to 0.1 M. Ten-fold serial dilutions (10^−2, 10^−3, 10^−4, 10^−5, 10^−6 M) in ethanol of each compound were prepared for analysis in the isomerase assay.
The isomerase assay was performed in 10 mM bis-tris-propane (BTP) buffer, pH 7.5, 0.5% BSA (diluted in BTP buffer), 1 mM sodium pyrophosphate, 20 μM all-trans retinol (in ethanol), and 6 μM apo-CRALBP. The test compounds (2 μl) (final […] dilution of serial dilution stocks) were added to the above reaction mixture to which RPE microsomes were added. The same volume of ethanol was added to the control reaction (absence of test compound). Bovine RPE microsomes (9 μl) (see above) were then added, and the mixtures transferred to 37° C. to initiate the reaction (total volume=150 μl). The reactions were stopped after 30 minutes by adding methanol (300 μl). Heptane was added (300 μl) and mixed into the reaction mixture by pipetting. Retinoid was extracted by agitating the reaction mixtures, followed by centrifugation in a microcentrifuge. […]

Data on 37 compounds can be found in patent US8492589B2, “Alkynyl phenyl derivative compounds for treating ophthalmic diseases and disorders” (Acucela Inc., priority 2007, dated 2013).

In the case of `NCCCc1cccc(C#Cc2cccs2)c1` [Example 65, 3-(3-(Thiophen-2-ylethynyl)phenyl)propan-1-amine], the IC50 (as a rule, the midpoint of a concentration-inhibition curve) is at most 10 µM. The result for `Cc1cccc(C#Cc2cccc(CCCN)c2)c1` [Example 87, 3-(3-(m-Tolylethynyl)phenyl)propan-1-amine] reads at most 100 µM; that for `Cc1ccc(C#Cc2cccc(CCCN)c2)cc1` [Example 84, 3-(3-(p-Tolylethynyl)phenyl)propan-1-amine], at most 100 µM; that for `CC(C)(C)C(O)(C#Cc1cccc(CCCN)c1)C(C)(C)C` [Example 12, 1-(3-(3-Aminopropyl)phenyl)-3-tert-butyl-4,4-dimethylpent-1-yn-3-ol], at most 10 µM. Next, `CC(C)(C)c1cc(C#Cc2cccc(CCCN)c2)cc(C(C)(C)C)c1` [Example 93, 3-(3-((3,5-Di-tert-butylphenyl)ethynyl)phenyl)propan-1-amine]: at most 1000 µM; `CC(C)CC(O)(C#Cc1cccc(CCCN)c1)CC(C)C` [Example 33, 4-((3-(3-Aminopropyl)phenyl)ethynyl)-2,6-dimethylheptan-4-ol]: at most 10 µM. `CC(C)C(C)(O)C#Cc1cccc(CCCN)c1` (stereo not shown) [Example 21, 1-(3-(3-Aminopropyl)phenyl)-3,4-dimethylpent-1-yn-3-ol] registered an IC50 of at most 1 µM. The compound `CC1(C)CCCC(C)(C)C1(O)C#Cc1cccc(CCCN)c1` [Example 13, 1-((3-(3-Aminopropyl)phenyl)ethynyl)-2,2,6,6-tetramethylcyclohexanol] showed an IC50 of at most 10 µM. Next, `Cc1cccc(C)c1C#Cc1cccc(CCCN)c1` [Example 17, 3-(3-((2,6-dimethylphenyl)ethynyl)phenyl)propan-1-amine]: at most 10 µM. With `N#Cc1cccc(C#Cc2cccc(CCCN)c2)c1` [Example 90, 3-((3-(3-Aminopropyl)phenyl)ethynyl)benzonitrile], the IC50 is at most 10 µM. Next, `NCCCc1cccc(C#Cc2cccc3ccccc23)c1` [Example 82, 3-(3-(Naphthalen-1-ylethynyl)phenyl)propan-1-amine]: at most 100 µM; `CC(C)(O)C#Cc1cccc(OCCN)c1` [Example 30, 4-(3-(2-Aminoethoxy)phenyl)-2-methylbut-3-yn-2-ol]: at most 1 µM.

With `CC(C)C(O)C#Cc1cccc(CCCN)c1` (stereo not shown) [Example 23, 1-(3-(3-Aminopropyl)phenyl)-4-methylpent-1-yn-3-ol], the IC50 was at most 1 µM.

In turn, `NCCC(O)c1cccc(C#CCC2CCCC2)c1` (stereo not shown) [Example 48, 3-Amino-1-(3-(3-cyclopentylprop-1-ynyl)phenyl)propan-1-ol] displayed an IC50 of at most 1 µM. Compound `NCCCc1cccc(C#CC2CCCCC2)c1` [Example 41, 3-(3-(Cyclohexylethynyl)phenyl)propan-1-amine] showed an IC50 of at most 1 µM. Next, `CCCCCC#Cc1cccc(CCCN)c1` [Example 102, 3-(3-(Hept-1-ynyl)phenyl)propan-1-amine]: at most 1 µM. Next, `CCCCC(O)(C#Cc1cccc(OCCN)c1)CCCC` [Example 29, 5-((3-(2-Aminoethoxy)phenyl)ethynyl)nonan-5-ol]: at most 1 µM.

With `NCCOc1cccc(C#CCCO)c1` [Example 76, 4-(3-(2-Aminoethoxy)phenyl)but-3-yn-1-ol], the IC50 is at most 100 µM. The result for `CCCCC[C@H](O)C#Cc1cccc(CCCN)c1` [Example 14, (S)-1-(3-(3-Aminopropyl)phenyl)oct-1-yn-3-ol] reads at most 10 µM. `CCCCC#Cc1cccc(CCCN)c1` [Example 44, 3-(3-(Hex-1-ynyl)phenyl)propan-1-amine] came in with an IC50 of at most 1 µM. As for `CCCCC[C@@H](O)C#Cc1cccc(CCCN)c1` [Example 15, (R)-1-(3-(3-Aminopropyl)phenyl)oct-1-yn-3-ol], the IC50 is at most 1 µM. The result for `CCCCCC#Cc1cccc(C(O)CCN)c1` (stereo not shown) [Example 53, 3-Amino-1-(3-(hept-1-ynyl)phenyl)propan-1-ol] reads at most 1 µM; that for `CC(C)CC(C)(O)C#Cc1cccc(CCCN)c1` (stereo not shown) [Example 6, 1-(3-(3-Aminopropyl)phenyl)-3,5-dimethylhex-1-yn-3-ol], at most 1 µM; that for `CCCC(O)(C#Cc1cccc(CCN)c1)CCC` [Example 141, 4-((3-(2-Aminoethyl)phenyl)ethynyl)heptan-4-ol], at most 1 µM.

Consider `NCCCc1cccc(C#CCc2ccccc2)c1` [Example 42, 3-(3-(3-Phenylprop-1-ynyl)phenyl)propan-1-amine], for which the IC50 was at most 1 µM.

For `CC(O)CC#Cc1cccc(CCCN)c1` (stereo not shown) [Example 35, 5-(3-(3-Aminopropyl)phenyl)pent-4-yn-2-ol], the 50% inhibitory concentration (IC50) is at most 10 µM. Next, `NCCOc1cccc(C#Cc2ccncc2)c1` [Example 97, 2-(3-(Pyridin-4-ylethynyl)phenoxy)ethanamine]: at most 10 µM. The result for `CCCC(O)(C#Cc1cccc(CC(C)(C)CN)c1)CCC` [Example 20, 4-((3-(3-Amino-2,2-dimethylpropyl)phenyl)ethynyl)heptan-4-ol] reads at most 100 µM; that for `NCCOc1cccc(C#CC2(O)CCOCC2)c1` [Example 56, 4-((3-(2-Aminoethoxy)phenyl)ethynyl)tetrahydro-2H-pyran-4-ol], at most 10 µM; that for `NCCOc1cccc(C#Cc2ccsc2)c1` [Example 96, 2-(3-(Thiophen-3-ylethynyl)phenoxy)ethanamine], at most 10 µM. Next, `NCCOc1cccc(C#CCc2ccccc2)c1` [Example 75, 2-(3-(3-phenylprop-1-ynyl)phenoxy)ethanamine]: at most 1 µM; `NCCCc1cccc(C#Cc2ccsc2)c1` [Example 66, 3-(3-(Thiophen-3-ylethynyl)phenyl)propan-1-amine]: at most 10 µM. Compound `NCCCc1cccc(C#CCCc2ccccc2)c1` [Example 72, 3-(3-(4-Phenylbut-1-ynyl)phenyl)propan-1-amine] yielded a 50% inhibitory concentration (IC50) of at most 1 µM. Next, `NCCCc1cccc(C#Cc2ccccc2O)c1` [Example 89, 2-((3-(3-Aminopropyl)phenyl)ethynyl)phenol]: at most 10 µM; `NCCCc1cccc(C#CCO)c1` [Example 10, 3-(3-(3-Aminopropyl)phenyl)prop-2-yn-1-ol]: at most 100 µM. On to `NCCC(O)c1cccc(C#CCc2ccccc2)c1` (stereo not shown) [Example 49, 3-Amino-1-(3-(3-phenylprop-1-ynyl)phenyl)propan-1-ol], for which the IC50 is at most 1 µM. The compound `NCCCc1cccc(C#Cc2cccc(C(F)(F)F)c2)c1` [Example 92, 3-(3-((3-(Trifluoromethyl)Phenyl)Ethynyl)Phenyl)Propan-1-Amine] yielded an IC50 of at most 100 µM.
